The source of these data is PMC5518105, “Identification and characterization of the antiplasmodial activity of Hsp90 inhibitors” (Malaria Journal, 2017).

One test addresses P. falciparum Grp94 (Plasmodium falciparum, UniProt Q8I0V4). The test is described as follows: biochemical. In kind it is binding. The procedure: (§1) Full-length human recombinant HSP90α was purchased (Cayman Chemicals, MI), while the malaria recombinant parasite proteins were generated according to the following protocol. […] Growth at 37 °C continued until the OD600 reached ~1.0, whereupon the temperature was lowered to 18 °C and protein expression was induced by the addition of 1 mM isopropyl β-D-thiogalactopyranoside (IPTG). Overnight post-induction cells were collected by centrifugation and resuspended in binding buffer [50 mM Hepes pH 7.5, 500 mM NaCl, 1 mM benzamidine, and 1 mM phenylmethanesulfonyl fluoride (PMSF)]. The cells were lysed by adding chemical lysis buffer (2% CHAPS, 0.1 mg/mL lysozyme and 0.5 U/mL benzonase), the lysate was clarified by centrifugation. The supernatant was loaded on to a nickel-nitrilotriacetic acid column pre-equilibrated with binding buffer (50 mM Hepes pH 7.5, 500 mM NaCl). Following a wash step with binding buffer containing 5 mM imidazole, the bound protein was eluted with elution buffer (50 mM Hepes pH 7.5, 500 mM NaCl, 250 mM imidazole). The eluate was then loaded on to a 16/60 Superdex 200 size exclusion column pre-equilibrated with 50 mM Hepes pH 7.5 and 500 mM NaCl. Target protein-containing fractions were pooled and concentrated using centrifugal filter units (Amicon). The final protein products and samples for different steps in the purification procedures were evaluated in SDS-Page gels.
(§2) SPR measurements were performed on Biacore T200 instrument (GE Healthcare) at 25 °C. Purified P. falciparum Hsp90 and PfGRP94 N-terminal domain, and full-length human Hsp90α were immobilized on a CM5 sensorchip using NHS/EDC coupling following the manufacturer protocol to a level of <10,000 RUs, a reference surfaces without immobilized proteins served as a control for nonspecific binding and refractive index changes. Seven different concentrations of the ligands between 0.4 nM and 1 mM, were injected in triplicate over the sensor chip at 30 μL/min in random order. The running buffer was 10 mM HEPES, pH 7.4, 150 mM NaCl, 0.005% P20, 1% DMSO and 2 mM MgCl2. Buffer alone injections were used as blanks. The sensor surface was regenerated between injections with a short injection of a buffer 10 mM HEPES, pH 7.4, 150 mM NaCl, 0.005% P20 and 3 mM EDTA. The Biacore responses recorded during the 30 s of the injection were used to estimate the association constant (k on) and the 300 s after the injection were used to estimate the dissociation constant (k off). All kinetic constants were estimated using double subtracted sensorgrams using BiaEvaluation Software (GE Healthcare), the kinetic constants were used to calculate the dissociation constant (K d).

The next test has as its target P. falciparum Hsp90 (Plasmodium falciparum, UniProt Q8IC05). The experiment in a line: biochemical. The format is binding. The procedure:
as §1, §2

Test [1] concerns P. falciparum chloroquine resistant W2. The experiment in a line: Growth inhibition assay (SYBR Green I), W2. Particulars: Plasmodium falciparum, W2, 72 h.
Description: (§4) A 50% suspension of non-infected O positive erythrocytes was added every 2 days to adjust haematocrit to 5%. Parasite cultures were maintained at 37 °C in 5% O2 and 5% CO2 atmosphere with daily changes of culture media.
(§5) A synchronized P. falciparum culture, with over 80% ring forms, was used in the growth inhibition assay. […] A 190 μL aliquot of parasite culture was dispensed per well to microplates that were pre-dispensed with the compounds at various dilutions. […] Dilutions of Hsp90 inhibitors and DHA were prepared in water with a final concentration of DMSO below 0.05% (v/v).
(§6) The microplates were incubated at 37 °C in a controlled atmosphere (5% O2, 5% CO2 Nitrogen balanced) for 72 h. After incubation, the plates were subject to a freeze–thaw cycle (−80 °C) and the parasite growth was quantified by the SYBR Green I method as previously described [33]. Briefly, 100 µL of homogenized parasite culture was transferred into 96-well black plates. […] The plates were incubated at room temperature in darkness for 1 h.
(§7) Growth inhibition experiments were conducted at least three times per compound (biological replicates, n ≥ 3). The IC50 differences for each inhibitor between the two P. falciparum strains were compared with a t test.
The test system of a further test is P. falciparum 3D7. The test is described as follows: Recrudescence assay, 3D7. The format is cell-based, Plasmodium falciparum. Particulars: 3D7, 100 nM for 48 h. The procedure: (§3) The assay is a modification of the previously reported bulk recrudescence assay. […] […] After drug exposure, the medium containing the drug was removed and the cultures were washed twice with compound-free media, and resuspended in RPMI to adjust haematocrit to 5%. The medium was changed every day and red blood cells were added every 2 days to adjust the haematocrit. The cultures were monitored daily until they reached 10% parasitaemia, which represented the end point of the experiment. Culture parasitaemia was determined by scoring >2000 erythrocytes in Giemsa-stained thin blood films as parasitized or not. The median number of days to reach this level of parasitaemia was reported for all the experiments. All experiments were conducted in triplicate; each replica was conducted on different days. The differences in the recovery times between control cultures to those exposed to Hsp90 inhibitors were analysed using the non-parametric statistic Kruskal–Wallis test. If the overall test was significant then Dunn’s multiple comparison tests were used to identify significant differences among pair comparisons. The same statistical analysis was applied when comparing P. falciparum cultures exposed to DHA alone versus DHA in combination with Hsp90 inhibitors. […] The statistical analyses were performed with the software Prism v6 (GraphPad Software, San Diego, CA).

The test system of another test is P. falciparum W2. The experiment in a line: Recrudescence assay, W2. In kind it is cell-based, Plasmodium falciparum. The conditions noted are these: W2, 100 nM for 48 h. The procedure: as §3
The subject of test [2] is P. falciparum chloroquine sensitive 3D7. The experiment in a line: Growth inhibition assay (SYBR Green I), 3D7. The conditions noted are these: Plasmodium falciparum, 3D7, 72 h.
Description: as §4, §5, §6, §7
A further test addresses T1, human Hsp90α (Homo sapiens, UniProt P07900).
T1 construct: Full-length human recombinant HSP90α was purchased; purchased Cayman Chemicals, MI
The test is described as follows: Biacore SPR analysis, full-length human Hsp90α. The format is binding. Particulars: for kon: read-out: ka. The procedure:
as §1
as §2, with “Seven different concentrations of the ligands between 0.4 nM and 1 mM, were injected in triplicate over the sensor chip at 30 μL/min in random order.” left out
(In SPR one partner is held on a chip, and binding of the other changes the refractive index at the surface.)

Where [3] appears, read: SPR, 25 °C, calculated from kinetic constants, read-out: Kd.
The mark [4] stands for this setting: Kd, SPR, 25 °C, calculated from kinetic constants.

Where two headings read alike, the source gives them in different places. Some results are limits rather than exact numbers.

Sequence of P. falciparum Grp94 (Q8I0V4 entry or part of it): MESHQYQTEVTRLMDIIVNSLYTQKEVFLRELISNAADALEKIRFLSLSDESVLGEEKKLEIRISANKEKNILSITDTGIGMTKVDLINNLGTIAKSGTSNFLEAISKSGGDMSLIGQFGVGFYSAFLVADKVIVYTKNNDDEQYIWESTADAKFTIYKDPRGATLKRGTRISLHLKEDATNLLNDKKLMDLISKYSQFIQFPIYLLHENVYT
Sequence of P. falciparum Hsp90 (Q8IC05 entry or part of it): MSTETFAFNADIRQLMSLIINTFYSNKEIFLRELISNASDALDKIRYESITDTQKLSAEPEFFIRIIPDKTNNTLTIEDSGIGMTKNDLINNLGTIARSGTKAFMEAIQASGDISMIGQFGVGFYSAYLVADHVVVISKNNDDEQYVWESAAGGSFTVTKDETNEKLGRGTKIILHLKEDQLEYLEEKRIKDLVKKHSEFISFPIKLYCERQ

As usually defined, the IC90 is the point of the concentration-response curve where the effect stands at 90%. High values mean weaker potency, low ones greater potency. In general, IC50 refers to the midpoint of a concentration-inhibition curve. A low value points to higher potency. For the molecule `CC1(C)CC(=O)c2c(C(F)(F)F)nn(-c3ccc(C(N)=O)c(N[C@H]4CC[C@H](O)CC4)c3)c2C1` [SNX-2112], the ka at P. falciparum Grp94 (SPR, 25 °C) was 4720 M⁻¹ s⁻¹; on P. falciparum Hsp90 (SPR, 25 °C) it was 20,300 1/Ms. The kd at P. falciparum Grp94 (SPR, 25 °C) was 0.0006 s⁻¹; at P. falciparum Hsp90 (SPR, 25 °C), 0.003 s⁻¹. The molecule also showed a 90% effect concentration (IC90) in test [1] of more than 10 µM. In addition, in test [1] (synchronized ring culture), the IC50 came out at 1.7 µM.
Regarding `C[C@H]1[C@@H](O)O[C@@H]2O[C@@]3(C)CC[C@H]4[C@H](C)CC[C@@H]1[C@@]24OO3` [DHA, dihydroartemisinin], the “days to recover to 10% parasitaemia (median)” value with P. falciparum 3D7 is on record as 12 days; with P. falciparum W2, 13 days. The values for the 90% effect concentration (IC90) in test [1] and in test [2] were 0.0018 µM and 0.0052 µM, respectively. Also, the IC50 in test [1] (synchronized ring culture) stood at 0.0005 µM; in test [2] (synchronized ring culture) it was 0.0012 µM.
Usually Kd stands for the equilibrium constant for the complex coming apart. `Nc1ncnc2c1ncn2[C@@H]1O[C@H](COP(=O)(O)OP(=O)(O)O)[C@@H](O)[C@H]1O` [ADP]: the ka at P. falciparum Grp94 (SPR, 25 °C) came to 1360 M⁻¹ s⁻¹; on P. falciparum Hsp90 (SPR, 25 °C), 107 M⁻¹ s⁻¹; at human Hsp90α (SPR, 25 °C), 109 M⁻¹ s⁻¹. The kd is 0.003 s⁻¹ on P. falciparum Grp94 (SPR, 25 °C); 0.002 s⁻¹ at P. falciparum Hsp90 (SPR, 25 °C); 0.006 s⁻¹ at human Hsp90α (SPR, 25 °C). Also, the dissociation constant (Kd) was 2.21 µM on P. falciparum Grp94 (setting [3]); 20.6 µM on P. falciparum Hsp90 (setting [3]); 63.8 µM at human Hsp90α (SPR, 25 °C, calculated from kinetic constants).
For `COC1=C2C[C@@H](C)C[C@H](OC)[C@H](O)[C@@H](C)/C=C(\C)[C@H](OC(N)=O)[C@@H](OC)/C=C\C=C(/C)C(=O)NC(=CC1=O)C2=O` [Geldanamycin, geldanamycin], in test [1], the IC50 is 0.2 µM and the IC90 was 2.63 µM. In test [2], the IC50 is 0.215 µM and the IC90 was found to be 1.7 µM.
With `CC(C)c1cc(C(=O)N2Cc3ccc(CN4CCN(C)CC4)cc3C2)c(O)cc1O` [AT13387, (2,4-dihydroxy-5-isopropylphenyl)-[5-(4-methylpiperazin-1-ylmethyl)-1,3-dihydroisoindol-2-yl]methanone], the values for the Kd at P. falciparum Grp94 and on P. falciparum Hsp90 (setting [4]) were 2980 µM and 46.5 µM, respectively. For the same molecule, the ka on P. falciparum Grp94 (SPR, 25 °C) was determined as 216 M⁻¹ s⁻¹; at P. falciparum Hsp90 (SPR, 25 °C) it was 212 M⁻¹ s⁻¹. Besides, the kd on P. falciparum Grp94 (SPR, 25 °C) amounted to 0.643 s⁻¹; on P. falciparum Hsp90 (SPR, 25 °C), 0.009 s⁻¹; at human Hsp90α (SPR, 25 °C), 0.348 s⁻¹. The kon at human Hsp90α was found to be 570 M⁻¹ s⁻¹. The figures for the concentration for an effect of 90% (IC90) in test [1] and in test [2] were 5.37 µM and 4.57 µM, respectively. Further, the half-maximal inhibitory concentration (IC50) in test [1] (synchronized ring culture) was determined as 0.531 µM; in test [2] (synchronized ring culture), 0.665 µM.
As to `CC(C)NCCCn1c(Sc2cc(Cl)cc(Cl)c2)nc2c(N)ncnc21` [PUWS13], the Kd is 5600 µM at P. falciparum Grp94 and 0.069 µM on P. falciparum Hsp90 (setting [4]). Also, the ka on P. falciparum Grp94 (SPR, 25 °C) is 149 M⁻¹ s⁻¹; on P. falciparum Hsp90 (SPR, 25 °C) it was 598,000 1/Ms. Also, the kd on P. falciparum Grp94 (SPR, 25 °C) amounted to 0.843 s⁻¹; at P. falciparum Hsp90 (SPR, 25 °C), 0.041 s⁻¹; at human Hsp90α (SPR, 25 °C) it was 0.022 s⁻¹. In addition, the kon at human Hsp90α is 811 M⁻¹ s⁻¹. This molecule yielded an IC90 in test [1] of 9.06 µM. Also, the IC50 in test [1] (synchronized ring culture) stood at 3.88 µM; in test [2] (synchronized ring culture), 7 µM.
As for `CC(C)c1cc(-c2n[nH]c(=O)n2-c2ccc3c(ccn3C)c2)c(O)cc1O` [STA-9090], the equilibrium dissociation constant (Kd) at P. falciparum Grp94 was 0.001 µM; at P. falciparum Hsp90 (Kd) it was 0.121 µM. In addition, the ka on P. falciparum Grp94 (SPR, 25 °C) is 1.7e+06 M⁻¹ s⁻¹; on P. falciparum Hsp90 (SPR, 25 °C), 1.27 M⁻¹ s⁻¹. Moreover, the kd turned out to be 0.003 s⁻¹ at P. falciparum Grp94 (SPR, 25 °C) and 1.5e-07 s⁻¹ on P. falciparum Hsp90 (SPR, 25 °C). For the same molecule, the 90% effect concentration (IC90) in test [1] was more than 10 µM; in test [2], 4.11 µM. The IC50 turned out to be 1.29 µM in test [1] (synchronized ring culture) and 1.25 µM in test [2] (synchronized ring culture).
As to `CC(C)NCCCn1c(Sc2cc3c(cc2I)OCO3)nc2c(N)ncnc21` [PUH71], the ka on P. falciparum Hsp90 is 356,000 1/Ms. For the same molecule, the kd on P. falciparum Hsp90 turned out to be 0.005 s⁻¹; on human Hsp90α, 0.007 s⁻¹. For the same molecule, the half-inhibitory concentration (IC50) in test [1] turned out to be 4.42 µM; in test [2], 3.92 µM. Also, the 90% effect concentration (IC90) in test [1] is more than 10 µM.
Consider `CCN(CC)CCCC(C)Nc1ccnc2cc(Cl)ccc12` (stereo not drawn) [CQ, Chloroquine], for which, in test [1], inhibition was half-maximal at 0.129 µM (IC50) and the 90% effect level (IC90) was put at 0.39 µM. In test [2], this molecule registered a concentration for half-maximal inhibition (IC50) of 0.0379 µM and an IC90 of 0.0672 µM.
As for `CC1(C)CC(=O)c2c(C(F)(F)F)nn(-c3ccc(C(N)=O)c(N[C@H]4CC[C@H](OC(=O)CN)CC4)c3)c2C1` [SNX-5422], the IC90 was 6.65 µM in test [1] and 4.32 µM in test [2]. Further, the half-maximal inhibitory concentration (IC50) in test [1] (synchronized ring culture) came to 2.01 µM; in test [2] (synchronized ring culture) it was 2.14 µM.
